test system: Escherichia coli ATCC 25922; assay: Minimum inhibitory concentration (MIC), CLSI broth micro-dilution, E. coli; type: cell-based; details: Escherichia coli, ATCC25922, 22 h, Table 6, cation adjusted Mueller Hinton Broth + 0.002% Tween-80, 35° C.
Protocol: In vitro antimicrobial activity of each compound was determined by measuring minimal inhibitor concentrations (MICs) using the broth micro-dilution technique as approved by the Clinical and Laboratory Standards Institute (CLSI) (Methods for Dilution Antimicrobial Susceptibility Tests for Bacteria that Grow Aerobically; Approved Standard-Eighth Edition. CLSI document M07-A8. Wayne, PA: Clinical and Laboratroy Standards; 2009). Antibacterial activity was measure against two strains of bacteria: a Methicillin Resistant Staphylococcus aureus strain USA 200, (S. aureus) and Escherichia coli ATCC 25922 (E. coli), a clinically relevant Gram-negative strain. Cells were inoculated onto plates of Trypyticase Soy Agar or Luria Agar respectively and grown at 35° C. for 20 hours. Inocula suspensions were prepared by scraping cells into 1 mL of testing media (cation adjusted Mueller Hinton Broth supplemented with 0.002% v/v Tween-80) and diluting to a final OD600nm of 0.01.
Test compounds were prepared in DMSO at a concentration of 10 mg/mL. In protocol 1, the compound stocks were diluted into testing media at a concentration of 64 µg/ml and serial 2-fold dilutions were made in the same media, in 96-well U bottom microtiter dishes, for a total of 10 compound concentrations. In protocol 2, the compound stocks were diluted into testing media at a concentration of 4 µg/mL and serial 2-fold dilutions were made in the same media, in 96-well U bottom microtiter dishes, for a total of 10 compound concentrations. In protocol 3, compound stocks were diluted into testing media at a concentration of 0.5 μg/mL, with serial 2-fold dilutions conducted as described above. In protocol 4, compound stocks were diluted into testing media at a concentration of […], with serial 2-fold dilutions conducted as described above. Inocula suspensions were added to the 2-fold serial dilutions of test compounds to a final density of GD OD600nm of 0.0005 and incubated at 35° C. for 22 hours.

| Structure (SMILES) | MIC |
| --- | --- |
| C[C@@H]1NC(=O)[C@@H](N(C)C(=O)[C@H](CCN)NC(=O)c2c(N)cc(-c3ccc(C(C)(C)C)cc3)nc2N)c2ccc(OCCN)c(c2)-c2cc(ccc2OCCN)C[C@@H](C(=O)NCC#N)NC1=O (racemic) [Compound 520, rac-(8S,11S,14S)-3,18-bis(2-aminoethoxy)-N-(cyanomethyl)-11-methyl-14-[methyl-[rac-(2S)-4-amino-2-[[2,4-diamino-6-(4-tert-butylphenyl)pyridine-3-carbonyl]amino]butanoyl]amino]-10,13-dioxo-9,12-diazatricyclo[13.3.1.12,6]icosa-1(18),2(20),3,5,15(19),16-hexaene-8-carboxamide] | 1 µM |
| CCCCOc1c(F)c(F)c(-c2nc(C)c(C(=O)N[C@@H](CCN)C(=O)N(C)[C@@H]3C(=O)N[C@@H](C)C(=O)N[C@H](C(=O)NCC#N)Cc4ccc(OCCN)c(c4)-c4cc3ccc4OCCN)c(C)n2)c(F)c1F (racemic) [Compound 351, rac-(8S,11S,14S)-3,18-bis(2-aminoethoxy)-N-(cyanomethyl)-11-methyl-14-[methyl-[rac-(2S)-4-amino-2-[[2-(4-butoxy-2,3,5,6-tetrafluoro-phenyl)-4,6-dimethyl-pyrimidine-5-carbonyl]amino]butanoyl]amino]-10,13-dioxo-9,12-diazatricyclo[13.3.1.12,6]icosa-1(18),2(20),3,5,15(19),16-hexaene-8-carboxamide] | 0.25 µM |
| CCc1nc(-c2ccc(C(C)(C)C)cc2)cc(N)c1C(=O)N[C@@H](CCN)C(=O)N(C)[C@@H]1C(=O)N[C@@H](C)C(=O)N[C@H](C(=O)NCC#N)Cc2ccc(OCCN)c(c2)-c2cc1ccc2OCCN (racemic) [Compound 546, rac-(8S,11S,14S)-3,18-bis(2-aminoethoxy)-N-(cyanomethyl)-11-methyl-14-[methyl-[rac-(2S)-4-amino-2-[[4-amino-6-(4-tert-butylphenyl)-2-ethyl-pyridine-3-carbonyl]amino]butanoyl]amino]-10,13-dioxo-9,12-diazatricyclo[13.3.1.12,6]icosa-1(18),2(20),3,5,15(19),16-hexaene-8-carboxamide] | 0.38 µM |
| Cc1nc(-c2ccc(OC3CCCCC3)cc2)nc(C)c1C(=O)N[C@@H](CCN)C(=O)N(C)[C@@H]1C(=O)N[C@@H](C)C(=O)N[C@H](C(=O)NCC#N)Cc2ccc(OCCN)c(c2)-c2cc1ccc2O (racemic) [Compound 522, rac-(8S,11S,14S)-3-(2-aminoethoxy)-N-(cyanomethyl)-18-hydroxy-11-methyl-14-[methyl-[rac-(2S)-4-amino-2-[[2-[4-(cyclohexoxy)phenyl]-4,6-dimethyl-pyrimidine-5-carbonyl]amino]butanoyl]amino]-10,13-dioxo-9,12-diazatricyclo[13.3.1.12,6]icosa-1(18),2(20),3,5,15(19),16-hexaene-8-carboxamide] | 0.13 µM |
| Cc1nc(-c2ccc(OC3CCCCC3)cc2)nc(N)c1C(=O)N[C@@H](CCN)C(=O)N(C)[C@@H]1C(=O)N[C@@H](C)C(=O)N[C@H](C(=O)NCC#N)Cc2ccc(OCCN)c(c2)-c2cc1ccc2OCCN (racemic) [Compound 547, rac-(8S,11S,14S)-3,18-bis(2-aminoethoxy)-N-(cyanomethyl)-11-methyl-14-[methyl-[rac-(2S)-4-amino-2-[[4-amino-2-[4-(cyclohexoxy)phenyl]-6-methyl-pyrimidine-5-carbonyl]amino]butanoyl]amino]-10,13-dioxo-9,12-diazatricyclo[13.3.1.12,6]icosa-1(18),2(20),3,5,15(19),16-hexaene-8-carboxamide] | 0.094 µM |

same assay, conditions: Escherichia coli, ATCC25922, 22 h, Table 7, cation adjusted Mueller Hinton Broth + 0.002% Tween-80, 35° C.

| Structure (SMILES) | MIC |
| --- | --- |
| Cc1nc(-c2ccc(C(C)(C)C)cc2)nc(C)c1C(=O)N[C@@H](CCNS(N)(=O)=O)C(=O)N(C)[C@@H]1C(=O)N[C@@H](C)C(=O)N[C@H](C(=O)NCC#N)Cc2ccc(OC[C@H](O)CN)c(c2)-c2cc1ccc2OC[C@H](O)CN (racemic) [Compound 580, rac-(8S,11S,14S)-N-(cyanomethyl)-11-methyl-14-[methyl-[rac-(2S)-2-[[2-(4-tert-butylphenyl)-4,6-dimethyl-pyrimidine-5-carbonyl]amino]-4-(sulfamoylamino)butanoyl]amino]-10,13-dioxo-3,18-bis[rac-(2R)-3-amino-2-hydroxy-propoxy]-9,12-diazatricyclo[13.3.1.12,6]icosa-1(18),2(20),3,5,15(19),16-hexaene-8-carboxamide] | 0.58 µM |
| CC(=O)Nc1cc2cc(c1O)-c1cc(ccc1OCCN)[C@H](N(C)C(=O)[C@H](CCN)NC(=O)c1c(C)nc(-c3ccc(C(C)(C)C)cc3)nc1C)C(=O)N[C@@H](C)C(=O)N[C@H](C(=O)NCC#N)C2 [Compound 559, (4S,7S,10S)-2^5-acetamido-10-((S)-4-amino-2-(2-(4-(tert-butyl)phenyl)-4,6-dimethylpyrimidine-5-carboxamido)-N-methylbutanamido)-1^6-(2-aminoethoxy)-N-(cyanomethyl)-2^6-hydroxy-7-methyl-6,9-dioxo-5,8-diaza-1,2(1,3)-dibenzenacyclodecaphane-4-carboxamide] | 0.38 µM |

same assay, conditions: Escherichia coli, ATCC25922, Table 6, cation adjusted Mueller Hinton Broth + 0.002% Tween-80, 35° C., 22 hours

| Structure (SMILES) | MIC |
| --- | --- |
| Cc1c(C(=O)N[C@@H](CCN)C(=O)N(C)[C@@H]2C(=O)N[C@@H](C)C(=O)N[C@H](C(=O)NCC#N)Cc3ccc(OCCN)c(c3)-c3cc2ccc3OCCN)cnn(-c2ccc(C(C)(C)C)cc2)c1=O (racemic) [Compound 387, rac-(8S,11S,14S)-3,18-bis(2-aminoethoxy)-N-(cyanomethyl)-11-methyl-14-[methyl-[rac-(2S)-4-amino-2-[[1-(4-tert-butylphenyl)-5-methyl-6-oxo-pyridazine-4-carbonyl]amino]butanoyl]amino]-10,13-dioxo-9,12-diazatricyclo[13.3.1.12,6]icosa-1(18),2(20),3,5,15(19),16-hexaene-8-carboxamide] | 8 µM |
| Cc1nc(-c2ccc(C3(C4CCCC4)CC3)cc2)nc(C)c1C(=O)N[C@@H](CCN)C(=O)N(C)[C@@H]1C(=O)N[C@@H](C)C(=O)N[C@H](C(=O)NCC#N)Cc2ccc(OCCN)c(c2)-c2cc1ccc2OCCN (racemic) [Compound 286, rac-(8S,11S,14S)-3,18-bis(2-aminoethoxy)-N-(cyanomethyl)-11-methyl-14-[methyl-[rac-(2S)-4-amino-2-[[2-[4-(1-cyclopentylcyclopropyl)phenyl]-4,6-dimethyl-pyrimidine-5-carbonyl]amino]butanoyl]amino]-10,13-dioxo-9,12-diazatricyclo[13.3.1.12,6]icosa-1(18),2(20),3,5,15(19),16-hexaene-8-carboxamide] | 0.13 µM |
| Cc1nc(C#CC(C)(C)C)ncc1C(=O)N[C@@H](CCN)C(=O)N(C)[C@@H]1C(=O)N[C@@H](C)C(=O)N[C@H](C(=O)NCC#N)Cc2ccc(OCCN)c(c2)-c2cc1ccc2OCCN (racemic) [Compound 228, rac-(8S,11S,14S)-3,18-bis(2-aminoethoxy)-N-(cyanomethyl)-11-methyl-14-[methyl-[rac-(2S)-4-amino-2-[[2-(3,3-dimethylbut-1-ynyl)-4-methyl-pyrimidine-5-carbonyl]amino]butanoyl]amino]-10,13-dioxo-9,12-diazatricyclo[13.3.1.12,6]icosa-1(18),2(20),3,5,15(19),16-hexaene-8-carboxamide] | 2.3 µM |

same assay, conditions: Escherichia coli, ATCC25922, Table 7, cation adjusted Mueller Hinton Broth + 0.002% Tween-80, 35° C., 22 hours

| Structure (SMILES) | MIC |
| --- | --- |
| Cc1nc(-c2ccc(C(C)(C)C)cc2)nc(C)c1C(=O)N[C@@H](CCN)C(=O)N(C)[C@@H]1C(=O)N[C@@H](C)C(=O)N[C@H](C(=O)NCC#N)Cc2cc(NC(N)=O)c(O)c(c2)-c2cc1ccc2OCCN (racemic) [Compound 618, rac-(8S,11S,14S)-18-(2-aminoethoxy)-N-(cyanomethyl)-3-hydroxy-11-methyl-14-[methyl-[rac-(2S)-4-amino-2-[[2-(4-tert-butylphenyl)-4,6-dimethyl-pyrimidine-5-carbonyl]amino]butanoyl]amino]-10,13-dioxo-4-ureido-9,12-diazatricyclo[13.3.1.12,6]icosa-1(18),2(20),3,5,15(19),16-hexaene-8-carboxamide] | 0.19 µM |
| COc1cc(OCCN)c2cc1-c1cc(ccc1OCCN)[C@H](N(C)C(=O)[C@H](CNS(N)(=O)=O)NC(=O)c1c(C)nc(-c3ccc(C(C)(C)C)cc3)nc1C)C(=O)N[C@@H](C)C(=O)N[C@H](C(=O)NCC#N)C2 (racemic) [Compound 627, rac-(8S,11S,14S)-5,18-bis(2-aminoethoxy)-N-(cyanomethyl)-3-methoxy-11-methyl-14-[methyl-[rac-(2S)-2-[[2-(4-tert-butylphenyl)-4,6-dimethyl-pyrimidine-5-carbonyl]amino]-3-(sulfamoylamino)propanoyl]amino]-10,13-dioxo-9,12-diazatricyclo[13.3.1.12,6]icosa-1(18),2(20),3,5,15(19),16-hexaene-8-carboxamide] | 0.5 µM |
